Experimental data as given in PubChem BioAssay AID2060626 (Molecular Pharmacology Branch, DTP, NCI, 2025).

These compounds were tested on 168753-222-R-J1-PDC complex spheroid viability (assay: Anticancer human tumor 168753-222-R-J1-PDC patient-derived bladder carcinoma cell line growth inhibition [CLK]). Settings: second compound 10 µM; first compound 0.00316 µM; stronger effect = lower value.
Summary of the method: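 Patient-derived tumor cells grown as complex spheroids with HUVEC endothelial cells and mesenchymal stem cells, treated with drug combinations. Concentrations descend in half-log steps from near clinical Cmax, or from 10 microM if Cmax unknown.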
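Note: luminescence signal used as surrogate for viable cell amount; viability measured after seven days of drug exposure; 100% = DMSO vehicle control wells.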

In the case of `Cn1ncnc1[C@H]1c2n[nH]c(=O)c3cc(F)cc(c23)N[C@@H]1c1ccc(F)cc1` + CNC(=O)c1ccc(Nc2nc(OC3CCCC3)c3c(-c4ccc5nc(C)oc5c4)c[nH]c3n2)c(OC)c1, the viability, T/C is reported as 19.3%.

Same assay, conditions: second compound 10 µM; first compound 0.01 µM; stronger effect = lower value

Going from `CCc1c2c(nc3ccc(O)cc13)-c1cc3c(c(=O)n1C2)COC(=O)[C@]3(O)CC` + CNC(=O)c1ccc(Nc2nc(OC3CCCC3)c3c(-c4ccc5nc(C)oc5c4)c[nH]c3n2)c(OC)c1 to `Cn1ncnc1[C@H]1c2n[nH]c(=O)c3cc(F)cc(c23)N[C@@H]1c1ccc(F)cc1` + CNC(=O)c1ccc(Nc2nc(OC3CCCC3)c3c(-c4ccc5nc(C)oc5c4)c[nH]c3n2)c(OC)c1, the viability, T/C rises from 15.3% to 16.8%.

Same assay, conditions: second compound 10 µM; first compound 0.0316 µM; stronger effect = lower value

Going from `CCc1c2c(nc3ccc(O)cc13)-c1cc3c(c(=O)n1C2)COC(=O)[C@]3(O)CC` + CNC(=O)c1ccc(Nc2nc(OC3CCCC3)c3c(-c4ccc5nc(C)oc5c4)c[nH]c3n2)c(OC)c1 to `Cn1ncnc1[C@H]1c2n[nH]c(=O)c3cc(F)cc(c23)N[C@@H]1c1ccc(F)cc1` + CNC(=O)c1ccc(Nc2nc(OC3CCCC3)c3c(-c4ccc5nc(C)oc5c4)c[nH]c3n2)c(OC)c1, the viability, T/C rises from 16.1% to 16.3%.

First: Nc1ccn(C2OC(CO)C(O)C2(F)F)c(=O)n1 (configuration not stated) + CNC(=O)c1ccc(Nc2nc(OC3CCCC3)c3c(-c4ccc5nc(C)oc5c4)c[nH]c3n2)c(OC)c1
Second: O=C(c1cc(Cc2n[nH]c(=O)c3ccccc23)ccc1F)N1CCN(C(=O)C2CC2)CC1 + CNC(=O)c1ccc(Nc2nc(OC3CCCC3)c3c(-c4ccc5nc(C)oc5c4)c[nH]c3n2)c(OC)c1
The viability, T/C of the first is higher: 18.2% for the first, 17.8% for the second.

`O=c1[nH]cc(F)c(=O)[nH]1` + CNC(=O)c1ccc(Nc2nc(OC3CCCC3)c3c(-c4ccc5nc(C)oc5c4)c[nH]c3n2)c(OC)c1 gave a viability, T/C of 17.1%.

Same assay, conditions: second compound 10 µM; first compound 0.1 µM; stronger effect = lower value

First: CCc1c2c(nc3ccc(O)cc13)-c1cc3c(c(=O)n1C2)COC(=O)[C@]3(O)CC + CNC(=O)c1ccc(Nc2nc(OC3CCCC3)c3c(-c4ccc5nc(C)oc5c4)c[nH]c3n2)c(OC)c1
Second: Cn1ncnc1[C@H]1c2n[nH]c(=O)c3cc(F)cc(c23)N[C@@H]1c1ccc(F)cc1 + CNC(=O)c1ccc(Nc2nc(OC3CCCC3)c3c(-c4ccc5nc(C)oc5c4)c[nH]c3n2)c(OC)c1
The viability, T/C of the first is lower: 12.6% for the first, 20.5% for the second.

Going from `Nc1ccn(C2OC(CO)C(O)C2(F)F)c(=O)n1` (configuration not stated) + CNC(=O)c1ccc(Nc2nc(OC3CCCC3)c3c(-c4ccc5nc(C)oc5c4)c[nH]c3n2)c(OC)c1 to `O=C(c1cc(Cc2n[nH]c(=O)c3ccccc23)ccc1F)N1CCN(C(=O)C2CC2)CC1` + CNC(=O)c1ccc(Nc2nc(OC3CCCC3)c3c(-c4ccc5nc(C)oc5c4)c[nH]c3n2)c(OC)c1, the viability, T/C rises from 18.4% to 18.5%.

Work on `O=c1[nH]cc(F)c(=O)[nH]1` + CNC(=O)c1ccc(Nc2nc(OC3CCCC3)c3c(-c4ccc5nc(C)oc5c4)c[nH]c3n2)c(OC)c1 yielded a viability, T/C of 17.1%.

Same assay, conditions: second compound 10 µM; first compound 0.316 µM; stronger effect = lower value

Compared with `CCc1c2c(nc3ccc(O)cc13)-c1cc3c(c(=O)n1C2)COC(=O)[C@]3(O)CC` + CNC(=O)c1ccc(Nc2nc(OC3CCCC3)c3c(-c4ccc5nc(C)oc5c4)c[nH]c3n2)c(OC)c1, `O=C(c1cc(Cc2n[nH]c(=O)c3ccccc23)ccc1F)N1CCN(C(=O)C2CC2)CC1` + CNC(=O)c1ccc(Nc2nc(OC3CCCC3)c3c(-c4ccc5nc(C)oc5c4)c[nH]c3n2)c(OC)c1 is higher in viability, T/C: 13.1% for the first, 18.7% for the second.

Going from `Nc1ccn(C2OC(CO)C(O)C2(F)F)c(=O)n1` (configuration not stated) + CNC(=O)c1ccc(Nc2nc(OC3CCCC3)c3c(-c4ccc5nc(C)oc5c4)c[nH]c3n2)c(OC)c1 to `O=c1[nH]cc(F)c(=O)[nH]1` + CNC(=O)c1ccc(Nc2nc(OC3CCCC3)c3c(-c4ccc5nc(C)oc5c4)c[nH]c3n2)c(OC)c1, the viability, T/C rises from 17.4% to 18.7%.

Same assay, conditions: second compound 10 µM; first compound 1 µM; stronger effect = lower value

Compared with `CCc1c2c(nc3ccc(O)cc13)-c1cc3c(c(=O)n1C2)COC(=O)[C@]3(O)CC` + CNC(=O)c1ccc(Nc2nc(OC3CCCC3)c3c(-c4ccc5nc(C)oc5c4)c[nH]c3n2)c(OC)c1, `O=C(c1cc(Cc2n[nH]c(=O)c3ccccc23)ccc1F)N1CCN(C(=O)C2CC2)CC1` + CNC(=O)c1ccc(Nc2nc(OC3CCCC3)c3c(-c4ccc5nc(C)oc5c4)c[nH]c3n2)c(OC)c1 is higher in viability, T/C: 7.91% for the first, 18.1% for the second.

First: Nc1ccn(C2OC(CO)C(O)C2(F)F)c(=O)n1 (configuration not stated) + CNC(=O)c1ccc(Nc2nc(OC3CCCC3)c3c(-c4ccc5nc(C)oc5c4)c[nH]c3n2)c(OC)c1
Second: O=c1[nH]cc(F)c(=O)[nH]1 + CNC(=O)c1ccc(Nc2nc(OC3CCCC3)c3c(-c4ccc5nc(C)oc5c4)c[nH]c3n2)c(OC)c1
The viability, T/C of the first is lower: 15.4% for the first, 15.7% for the second.

Same assay, conditions: second compound 10 µM; first compound 3.16 µM; stronger effect = lower value

Going from `Nc1ccn(C2OC(CO)C(O)C2(F)F)c(=O)n1` (configuration not stated) + CNC(=O)c1ccc(Nc2nc(OC3CCCC3)c3c(-c4ccc5nc(C)oc5c4)c[nH]c3n2)c(OC)c1 to `O=C(c1cc(Cc2n[nH]c(=O)c3ccccc23)ccc1F)N1CCN(C(=O)C2CC2)CC1` + CNC(=O)c1ccc(Nc2nc(OC3CCCC3)c3c(-c4ccc5nc(C)oc5c4)c[nH]c3n2)c(OC)c1, the viability, T/C rises from 17.1% to 18.1%.

`O=c1[nH]cc(F)c(=O)[nH]1` + CNC(=O)c1ccc(Nc2nc(OC3CCCC3)c3c(-c4ccc5nc(C)oc5c4)c[nH]c3n2)c(OC)c1 showed a viability, T/C of 18.6%.

Same assay, conditions: second compound 10 µM; first compound 10 µM; stronger effect = lower value

First: Nc1ccn(C2OC(CO)C(O)C2(F)F)c(=O)n1 (configuration not stated) + CNC(=O)c1ccc(Nc2nc(OC3CCCC3)c3c(-c4ccc5nc(C)oc5c4)c[nH]c3n2)c(OC)c1
Second: O=C(c1cc(Cc2n[nH]c(=O)c3ccccc23)ccc1F)N1CCN(C(=O)C2CC2)CC1 + CNC(=O)c1ccc(Nc2nc(OC3CCCC3)c3c(-c4ccc5nc(C)oc5c4)c[nH]c3n2)c(OC)c1
The viability, T/C of the first is lower: 16.2% for the first, 21.3% for the second.

`O=c1[nH]cc(F)c(=O)[nH]1` + CNC(=O)c1ccc(Nc2nc(OC3CCCC3)c3c(-c4ccc5nc(C)oc5c4)c[nH]c3n2)c(OC)c1 showed a viability, T/C of 23.5%.
